The target in one experiment is T1, human IDO1 (Homo sapiens, UniProt P14902).
T1 construct: expressed in transfected cells
The experiment can be described thus: IDO inhibition assay in HEK293 cells stably expressing human IDO1 (kynurenine, Ehrlich reagent). The format is cell-based. The following applies: 20 hours incubation, absorbance at 490 nm, read-out: IDO1 HEK Human IC50. The procedure: HEK293 cells were transfected with a pCDNA-based mammalian expression vector harboring human IDO1 cDNA (NM 002164.2) by electroporation. They were cultured in medium (DMEM with 10% FBS) containing 1 mg/ml G418 for two weeks. Clones of HEK293 cells that stably expressed human IDO1 protein were selected and expanded for IDO inhibition assay.
The human IDO1/HEK293 cells were seeded at 10,000 cells per 50 μL per well with RPMI/phenol red free media contains 10% FBS in a 384-well black wall clear bottom tissue culture plate (Matrix Technologies LLC) 100 nL of certain concentration of compound was then added to each well using ECHO liquid handling systems. The cells were incubated for 20 hours in 37° C. incubator with 5% CO2.
The compound treatments were stopped by adding trichloroacetic acid (Sigma-Aldrich) to a final concentration at 0.2%. The cell plate was further incubated at 50° C. for 30 minute. The equal volume supernatant (20 μL) and 0.2% (w/v) Ehrlich reagent (4-dimethylaminobenzaldehyde, Sigma-Aldrich) in glacial acetic acid were mixed in a new clear bottom 384-well plate. This plate was then incubated at room temperature for 30 minute. The absorbance at 490 nm was measured on Envision plate reader.
Compound IC50 values were calculated using the counts of 500 nM of a reference standard treatment as one hundred percent inhibition, and counts of no compound but DMSO treatment as zero percent inhibition.

For experiment [1], the target named is T2, indoleamine 2,3-dioxygenase (IDO) (Homo sapiens, UniProt P14902).
T2 construct: host or cells: HeLa cells stimulated with IFNγ (25 ng/mL)
T2 sequence (P14902 whole entry): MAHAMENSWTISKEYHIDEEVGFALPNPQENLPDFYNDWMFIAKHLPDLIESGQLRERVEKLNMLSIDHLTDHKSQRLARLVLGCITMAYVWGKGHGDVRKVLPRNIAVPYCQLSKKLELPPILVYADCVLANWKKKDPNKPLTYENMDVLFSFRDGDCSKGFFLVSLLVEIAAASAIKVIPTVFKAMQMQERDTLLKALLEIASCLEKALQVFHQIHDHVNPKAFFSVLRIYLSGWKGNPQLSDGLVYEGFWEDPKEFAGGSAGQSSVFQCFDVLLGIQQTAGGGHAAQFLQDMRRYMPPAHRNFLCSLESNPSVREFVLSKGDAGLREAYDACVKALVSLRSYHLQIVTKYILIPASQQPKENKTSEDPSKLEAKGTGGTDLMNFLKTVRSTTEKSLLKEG
The experiment can be described thus: HeLa cell-based indoleamine 2,3-dioxygenase (IDO) assay (kynurenine production). As to conditions: HeLa cells, IFNγ 25 ng/mL, 48 hour incubation, absorbance at 480 nm. The procedure: Assessment of inhibitor activity in HeLa cell-based indoleamine 2,3-dioxygenase (IDO) assay:
HeLa (ATCC® CCL-2) cells were obtained from the ATCC® and cultured in Dulbecco's Modified Eagle Medium supplemented with 4.5 g/L glucose, […] (#10-013-CV, Corning), 2 mM L-alanyl-L-glutamine dipeptide (#35050-061, Gibco), 100U/mL penicillin, 100 μg/mL streptomycin (#SV30010, HyClone) and 10% fetal bovine serum (#SH30071.03 HyClone). Cells were maintained in a humidified incubator at 37° C. in 5% CO2.
IDO activity was assessed as a function of kynurenine production as follows: HeLa cells were seeded in a 96-well culture plate at a density of 5,000 cells/well and allowed to equilibrate overnight. After 24 hours, the media was aspirated and replaced with media containing IFNγ (#285-IF/CF, R&D Systems) at a final concentration of 25 ng/mL. A serial dilution of each test compound was added to the cells in a total volume of 200 μL of culture medium. After a further 48 hour incubation, 170 μL of supernatant was transferred from each well to a fresh 96-well plate. 12.1 μL of 6.1N trichloroacetic acid (#T0699, Sigma-Aldrich) was added to each well and mixed, followed by incubation at 65° C. for 20 minutes to hydrolyze N-formylkynurenine, the product of indoleamine 2,3-dioxygenase, to kynurenine. The reaction mixture was then centrifuged for 10 mins at 500×g to sediment the precipitate. 100 μL of the supernatant was transferred from each well to afresh 96-well plate. 100 μl of 2% (w/v) p-dimethylaminobenzaldehyde (#15647-7, Sigma-Aldrich) in acetic acid (#A6283, Sigma-Aldrich) was added to each well mixed and incubated at room temperature for 20 mins. Kynurenine concentrations were determined by measuring absorbance at 480 nm and calibrating against an L-kynurenine (#K8625, Sigma-Aldrich) standard curve using a SPECTRAMAX® M2e microplate reader (Molecular Devices). The percentage activity at each inhibitor concentration was determined and IC50 values assessed using nonlinear regression.

pIC50: −log10 of the molar value.

T1 sequence (P14902 whole entry): as above

Regarding `CCC(c1nc2ccc(Cl)cc2[nH]1)[C@H]1CC[C@H](Oc2ccnc3ccccc23)CC1` (single isomer, unassigned) [Example 13-1, 4-(((trans)-4-(1-(6-chloro-1H-benzo[d]imidazol-2-yl)propyl)cyclohexyl)oxy)quinoline], the values for the pIC50 (at human IDO1; in experiment [1]) were 8.39 and 8.24, respectively.
As to `CCC(c1nc2ccc(Cl)cc2[nH]1)[C@H]1CC[C@H](Oc2ccnc3ccccc23)CC1` (single isomer, unassigned) [Example 13-2, 4-(((trans)-4-(1-(6-chloro-1H-benzo[d]imidazol-2-yl)propyl)cyclohexyl)oxy)quinoline], the pIC50 at human IDO1 was 8.47; in experiment [1], 8.05.
The matching figures for `CC[C@H](c1nc2ccc(Cl)cc2[nH]1)[C@H]1CC[C@@H](c2ccnc3ccc(F)cc32)CC1` (single isomer, unassigned) [Example 15-3, 4-(4-(1-(6-chloro-1H-benzo[d]imidazol-2-yl)propyl)cyclohexyl)-6-fluoroquinoline]: 9.15 and 8.46.
For the compound `CC[C@H](c1nc2ccc(Cl)cc2[nH]1)[C@H]1CC[C@@H](c2ccnc3ccc(F)cc32)CC1` (single isomer, unassigned) [Example 15-4, 4-(4-(1-(6-chloro-1H-benzo[d]imidazol-2-yl)propyl)cyclohexyl)-6-fluoroquinoline], the pIC50 at human IDO1 is 8.18; in experiment [1] it was 8.02.
On the same counts, the results for `CC(c1nc2ccc(Cl)cc2[nH]1)C1CCC(c2ccnc3ccccc23)CC1` (single isomer, unassigned) [Example 16-2, (±)-4-(4-(1-(6-chloro-1H-benzo[d]imidazol-2-yl)ethyl)cyclohexyl)quinoline] are 8.35 and 8.24.
On the same counts, the results for `C[C@@H](c1nc2ccccc2[nH]1)[C@H]1CC[C@@H](c2ccnc3ccc(F)cc32)CC1` [Example 1, 4-((cis)-4-((R)-1-(1H-benzo[d]imidazol-2-yl)ethyl)cyclohexyl)-6-fluoroquinoline] are 8.28 and 8.33.
On to `C[C@@H](c1nc2ccc(Cl)cc2[nH]1)[C@H]1CC[C@@H](c2ccnc3ccc(F)cc32)CC1` [Example 2, 4-((cis)-4-((R)-1-(6-chloro-1H-benzo[d]imidazol-2-yl)ethyl)cyclohexyl)-6-fluoroquinoline], for which the pIC50 was 8.74 on human IDO1 and 8.96 in experiment [1].
In the case of `C[C@@H](c1nc2ccc(F)cc2[nH]1)[C@H]1CC[C@@H](c2ccnc3ccc(F)cc32)CC1` [Example 3, 6-fluoro-4-((cis)-4-((R)-1-(6-fluoro-1H-benzo[d]imidazol-2-yl)ethyl)cyclohexyl)quinoline], the negative logarithm of the IC50 (pIC50) on human IDO1 was 8.57; in experiment [1] it was 8.82.
On the same counts, the results for `C[C@@H](c1nc2ncc(Cl)cc2[nH]1)[C@H]1CC[C@@H](c2ccnc3ccc(F)cc32)CC1` [Example 6, 4-((cis)-4-((R)-1-(6-chloro-1H-imidazo[4,5-b]pyridin-2-yl)ethyl)cyclohexyl)-6-fluoroquinoline] are 8.15 and 8.35.
Regarding `C[C@@H](c1nc2ncccc2[nH]1)[C@H]1CC[C@@H](c2ccnc3ccc(F)cc32)CC1` [Example 7, 4-((cis)-4-((R)-1-(1H-imidazo[4,5-b]pyridin-2-yl)ethyl)cyclohexyl)-6-fluoroquinoline], the negative-log IC50 (pIC50) at human IDO1 was 7.63; in experiment [1], 7.52.
The matching figures for `C[C@@H](Nc1nc2ccc(Cl)cc2o1)[C@H]1CC[C@@H](c2ccnc3ccc(F)cc32)CC1` [Example 11, 6-chloro-N-((R)-1-((cis)-4-(6-fluoroquinolin-4-yl)cyclohexyl)ethyl)benzo[d]oxazol-2-amine]: 7.39 and 7.39.
Regarding `C[C@@H](Nc1nc2ccccc2[nH]1)[C@H]1CC[C@@H](c2ccnc3ccc(F)cc32)CC1` [Example 12, N-((R)-1-((cis)-4-(6-fluoroquinolin-4-yl)cyclohexyl)ethyl)-1H-benzo[d]imidazol-2-amine], the pIC50 at human IDO1 was 6.86.
Still for that read-out and setting: to `CCC(c1nc2ccc(Cl)cc2[nH]1)[C@H]1CC[C@@H](Oc2ccnc3ccccc23)CC1` (stereo partly drawn) [Example 14, 4-(((cis)-4-(1-(6-chloro-1H-benzo[d]imidazol-2-yl)propyl)cyclohexyl)oxy)quinoline] belongs 6.49.
Turning to `C=CC[C@@H](c1nc2ccc(Cl)cc2[nH]1)[C@H]1CC[C@@H](c2ccnc3ccc(F)cc32)CC1` [Example 32, 4-((1S,4s)-4-((R)-1-(6-chloro-1H-benzo[d]imidazol-2-yl)but-3-en-1-yl)cyclohexyl)-6-fluoroquinoline], the negative-log IC50 (pIC50) on human IDO1 was 8.70; in experiment [1] it was 8.55.
Take `CCC(c1nc2ccc(Cl)cc2[nH]1)[C@H]1CC[C@@H](Oc2ccnc3ccccc23)CC1` (stereo partly drawn) [Example 51, 4-(((1s,4s)-4-(1-(6-chloro-1H-benzo[d]imidazol-2-yl)propyl)cyclohexyl)oxy)quinoline]: the negative logarithm of the IC50 (pIC50) on human IDO1 was 5.98.
For the compound `CCC(c1nc2ccc(Cl)cc2[nH]1)[C@H]1CC[C@@H](Oc2ccnc3ccccc23)CC1` (stereo partly drawn) [Example 52, 4-(((1s,4s)-4-(1-(6-chloro-1H-benzo[d]imidazol-2-yl)propyl)cyclohexyl)oxy)quinoline], the negative-log IC50 (pIC50) on human IDO1 was 6.16.
As to “(+/−)-Cis and trans-6-chloro-2-(1-(4-(2-(trifluoromethyl)pyridin-4-yl)cyclohexyl)propyl)-1H-benzo[d]imidazole [Example 36]”, the negative logarithm of the IC50 (pIC50) at human IDO1 is 7.58.
As to “(±)-Cis and trans-6-chloro-2-(1-(4-(2-(trifluoromethyl)pyridin-4-yl)cyclohexyl)ethyl)-1H-benzo[d]imidazole [Example 38]”, the pIC50 at human IDO1 is 7.21.

As a reminder, the pIC50 is the negative decadic logarithm of the IC50, by convention in mol/L.

The record behind these values is patent US11337970B2, “Inhibitors of indoleamine 2,3-dioxygenase and methods of their use” (BRISTOL-MYERS SQUIBB COMPANY, priority 2016, dated 2022).
